In patent US20260327274A1, “PROTEIN HYDROLYSATES OF AZUKI BEANS AND COSMETIC USES THEREOF” (LUBRIZOL ADVANCED MATERIALS, INC., priority 2022, published 2026):
Ends that are not written are not given here.

What was measured:
[1] = DPPH assay of antioxidant activity in combination with preservatives, initial and after 3 months storage; type: biochemical; settings: 0.5% (w/w) Sodium Benzoate alone
Procedure: (§1) Twelve different batches of purified hydrolysate obtained as described from Examples 1 to 3 are analyzed to determine the dry weight, protein content and antioxidant activity. • Dry weight is determined by weight difference after drying at 110° C. • Protein content is determined by using a BCA Assay kit. • Antioxidant activity is determined by DPPH (2,2-Diphenyl-1-Picrylhydrazyl) assay. • Briefly, 50 μL of 100 µM DPPH in EtOH is mixed with 50 μL of purified hydrolysate and incubated in the dark at 37° C. for 20 min and absorbance measured at 517 nm.
The inhibition percentage is calculated from the following formula: […]
Suitable preservative [1% (w/w) Dermosoft™ 700B (INCI: Levulinic Acid (and) Sodium Levulinate (and) Glycerin (and) Aqua), 4% (w/w) Leucidal™ SF Max from Active Micro Technologies (AMT) (INCI: Lactobacillus Ferment) or 4% (w/w) Leucidal™ Liquid (INCI: Leuconostoc/Radish Root Ferment Filtrate)] is added onto deionized water under continuous stirring. Purified hydrolysate according to Example 3 is added on top of this solution to obtain a concentration of 44-88% (v/v), depending on sample dry weight. […] Samples are maintained for 3 months at 40° C. or at room temperature and antioxidant activity determined by DPPH assay.

[2] = DPPH inhibition by synthesized peptides identified in the hydrolysate; type: biochemical; settings: for DPPH inhibition (%): synthesized peptide, test concentration not given; for Ability to inhibit DPPH / antioxidant potential (in words): synthesized peptides, F′2 subfraction
Procedure: as §1
The purified extract according to Example 3 is further fractionated by using semi-preparative high-performance liquid chromatography (HPLC) and antioxidant activity assayed by DPPH for identifying the active fraction or peptides.
Collected tubes are analyzed by analytical HPLC at 3.0 mg/ml using a Cortecs C18+column (4.6×50 mm; 2.7 μm; Waters®) at a flow of 1.6 ml/min using the following gradient composition: isocratic of 0% B in 2 min, 0 to 30% of B in 5 min, and 30 to 75% of B in 5 min, monitoring absorbance of eluting peaks at 220 nm. Different fractions are obtained from the purified hydrolysate and lyophilized for further analysis and separation. Fractions are reconstituted in water and their antioxidant activity is determined by measuring the percentage of DPPH inhibition using the methodology described above.
To identify peptide sequences, the Proteome Discoverer 1.4.0.288 program (Thermo) with MASCOT 2.5 is used. The identified peptides are individually synthesized by applying standard solid phase peptide synthesis, using Fmoc/tBu chemistry protocols. As starting resin, CTC-PS or HO-Trt-Chem Matrix® resin is used. In the latter case, initial resin chlorination took place by overnight reaction with […] in dry THF. The first amino acid is introduced as a solution in DMF in presence of DIEA as base, followed by capping of the resin with MeOH. The resin is washed with DMF, prior to removal of Fmoc group by treatment with a 20% solution of piperidine in DMF, followed by washings in the same solvent. Subsequent residues are incorporated in DMF employing DIPCDI and Oxyma as coupling reagents. After verification of reaction completion using ninhydrin test, the solvent is filtrated away by suction. After this, the resin is washed with DMF and the Fmoc-deprotection step is repeated as abovementioned or in 2% DBU in DMF. Coupling-deprotection cycles are repeated for introduction of the remaining amino acids, with increasing Fmoc removal treatment times from the 6th residue. Oxyma (0.5M) is introduced in the cocktail whenever Asp residue is already incorporated into the growing peptide chain.
The peptidyl resin is washed and dried using DMF, DCM and diethyl ether and finally left under vacuum overnight to get rid of solvent traces. Cleavage of the crude product from the solid support and removal of the side-chain protecting groups is achieved by acidolysis using TFA and 5% water as scavenger. The peptide is precipitated out of the acidic mixture with Et2O, followed by washes with the same solvent and drying under reduced pressure. Crude trifluoroacetate salt peptide is lyophilized and analyzed by analytical HPLC-MS, affording peptide purities over 80%.
Synthesized peptides are further evaluated for its capacity to inhibit DPPH as a reference for their antioxidant potential. […] ID.

[3] = tested on: Caucasian hair shafts; assay: Ex vivo protection evaluation in Caucasian hair shafts (protein carbonylation); set-up: species or system human; settings: positive control NAC, concentration not given; stress (PM + UV-A); basal control 100, stress 214
Description: Carbonylated proteins in hair shafts or HFDPC are labeled in situ using a fluorescent probe functionalized to specifically bind carbonyl groups in proteins [Baraibar, M A, et al., “Proteomic quantification and identification of carbonylated proteins upon oxidative stress and during cellular aging” J. Proteomics (2013) 30; 92:63-70]. Specific fluorescent signals (relative fluorescent units) per experimental group (n=6) are collected and analyzed with ImageJ™ software. A relative value (%) of Carbonylation Level per experimental group is obtained with respect to basal control.
hair shafts (donor; light brown) are treated with hydrolysate of Example 3 at 1% (v/v) (active ingredient solubilized in ultra-pure water, leave on (no washing steps)) for 30 minutes with gently movement at room temperature. After this time, hair shafts are dried at room temperature and are stressed with Particle Matters at 150 μg/cm^2 (from European Reference Material; Ref. CZ100) followed by UV-A irradiation (LED source, emission peak at 365 nm, 84 J/cm^2) for 6 h.
After stress exposure Proteins Carbonylation is determined as described in Example 5.

Compound	% DPPH INHIBITION, t = 0 [1] [%]	DPPH inhibition (%) [2] [%]	Ability to inhibit DPPH / antioxidant potential (in words) [2]	Carbonylation level % (MEAN ± SEM) [3] [%]
O=C(O)c1ccccc1 [Sodium Benzoate]	0	–	–	–
VDAQPEEQQR [SEQ ID No. 3]	–	100	most antioxidant peptides	–
EYTGDAAGR [SEQ ID No. 5]	–	83.9	most antioxidant peptides	–
GINAENNQRN [SEQ ID No. 4]	–	96.3	most antioxidant peptides	–
CC(=O)N[C@@H](CS)C(=O)O [NAC, N-acetyl-cysteine]	–	–	–	166.8 ± 5.41
LPQQEQGHDR [SEQ ID No. 2]	–	77.5	most antioxidant peptides	–
VAEQEQEQAKRQ [SEQ ID No. 1]	–	78.7	most antioxidant peptides	–
